“Also recorded” adds a separate entry of the source.
Test system: ONC-T18
Assay: Fatty acid production antagonist supplementation of ONC-T18 culture, fatty acid profile by FAME GC-FID
Assay type: cell-based, Thraustochytrium sp. ONC-T18
Details: for adrenic acid, lipid as percentage of total fatty acid / arachidic acid, lipid as percentage of total fatty acid / arachidonic acid, lipid as percentage of total fatty acid / behenic acid, lipid as percentage of total fatty acid / docosadienoic acid, lipid as percentage of total fatty acid / docosahexaenoic acid, lipid as percentage of total fatty acid / docosapentaenoic acid n-3, lipid as percentage of total fatty acid / docosapentaenoic acid n-6, lipid as percentage of total fatty acid / eicosadienoic acid, lipid as percentage of total fatty acid / eicosapentaenoic acid, lipid as percentage of total fatty acid / eicosatetraenoic acid, lipid as percentage of total fatty acid / eicosatrienoic acid, lipid as percentage of total fatty acid / eicosenoic acid, lipid as percentage of total fatty acid / heneicosapentaenoic acid, lipid as percentage of total fatty acid / hexacosanoic acid, lipid as percentage of total fatty acid / homo-gamma-linolenic acid, lipid as percentage of total fatty acid / lignoceric acid, lipid as percentage of total fatty acid / margaric acid, lipid as percentage of total fatty acid / myristic acid, lipid as percentage of total fatty acid / myristoleic acid, lipid as percentage of total fatty acid / nervonic acid, lipid as percentage of total fatty acid / oleic acid, lipid as percentage of total fatty acid / palmitic acid, lipid as percentage of total fatty acid / palmitoleic acid, lipid as percentage of total fatty acid / pentadecanoic acid, lipid as percentage of total fatty acid / pentadecenoic acid, lipid as percentage of total fatty acid / stearic acid, lipid as percentage of total fatty acid / vaccenic acid, lipid as percentage of total fatty acid: presence of the antagonist, oleic acid without glucose
Procedure: Media containing 25 g/l sea salt and 1 g/l yeast extract was autoclaved at 120° C. for 20 minutes. Sterilized glucose was added to the media at a concentration of 9 g/l. Sethoxydim (Supleco) was dissolved in dimethyl sulfoxide at a concentration of 5 mg/ml was then added to the media at to represent a final concentration of 100 µM. 1 ml of a 24 hour pre-culture of ONC-T 18 that had been cultured in the same media was added. Culturing was carried out in a shaker (130 rpm) for four days at room temperature. After the incubation period, cells were harvested by centrifugation at 4300 rpm for 10 minutes. The cell pellets were then freeze-dried, weighed and the oil was extracted from the cells.
(§1) The lipids were extracted and derivatized to fatty acid methyl esters (FAME) for gas chromatography analysis (GC). Transesterification and extraction was done using 200 mg freeze dried cells, with C19:0 as internal standard, added transesterification reaction mix (methanol:hydrochloric acid:chloroform, 10:1:1) mixed and heated at 90° C. for 2 hours, then allowed to cool at room temperature. FAMEs were extracted by adding 1 ml water, and 2 ml hexane:chloroform (4:1), and allow organic and aqueous phases to separate. The organic layer was extracted and treated with 0.5 g of anhydrous sodium sulfate to remove particulates and residual water. The organic solvents were evaporated under a stream of argon. The FAMEs were re-suspended in 5 ml of iso-octane and analyzed by GC-FID. The percent conversion was calculated by dividing the product produced by the sum of (the product produced plus the substrate added) and then multiplying by 100.
Media containing 6 g/l sea salt, 2 g/l yeast extract, and 8 g/l L-glutamic acid monosodium salt hydrate was autoclaved at 120° C. for 20 minutes. Sterilized D+-glucose was then added to this media at a concentration of 40 g/l. Cerulenin dissolved in ethanol at a concentration of 5 mg/ml was added to 250 ml flask and the solvent was evaporated for 1 hour prior to adding the media to the flask. The amount of cerulenin in the flask represented a final concentration of 20 mg/l. ONC-T18 was then added to the medium from a plate culture and culturing occurred in a shaker (130 rpm) at room temperature for four days. After the incubation period, cells were harvested by centrifugation at 4300 rpm for 10 minutes, washed once with distilled water, and then centrifuged again at 4300 rpm for 10 minutes. The cell pellets were then freeze-dried, weighed and the oil was extracted from the cells.
as §1, with “produced+the” for “produced plus the”
Media containing 6 g/l sea salt, 2 g/l yeast extract, and 8 g/l L-glutamic acid monosodium salt hydrate was autoclaved at 120° C. for 20 minutes. Sterilized D+-glucose wad then added at a concentration of 5 g/l or was not added to the media. Oleic acid was added to the media to represent a final concentration of 2 ml/l. […]

SMILES | C16:0 content in ONC-T18, change versus control (in words) (antagonist added to medium) | adrenic acid, lipid as percentage of total fatty acid | arachidic acid, lipid as percentage of total fatty acid | arachidonic acid, lipid as percentage of total fatty acid | behenic acid, lipid as percentage of total fatty acid | docosadienoic acid, lipid as percentage of total fatty acid | docosahexaenoic acid, lipid as percentage of total fatty acid | docosapentaenoic acid n-3, lipid as percentage of total fatty acid | docosapentaenoic acid n-6, lipid as percentage of total fatty acid | eicosadienoic acid, lipid as percentage of total fatty acid | eicosapentaenoic acid, lipid as percentage of total fatty acid | eicosatetraenoic acid, lipid as percentage of total fatty acid | eicosatrienoic acid, lipid as percentage of total fatty acid | eicosenoic acid, lipid as percentage of total fatty acid | heneicosapentaenoic acid, lipid as percentage of total fatty acid | hexacosanoic acid, lipid as percentage of total fatty acid | homo-gamma-linolenic acid, lipid as percentage of total fatty acid | lignoceric acid, lipid as percentage of total fatty acid | margaric acid, lipid as percentage of total fatty acid | myristic acid, lipid as percentage of total fatty acid | further results
COc1cc(CNC(=O)CCCC/C=C/C(C)C)ccc1O [capsaicin] | decrease in the content of C16:0 | 0.46% | 0.20% | 0.78% | 0.00% | 0.17% | 16.86% | 0.31% | 5.19% | 0.23% | 1.38% | 0.27% | 0.00% | 0.00% | 0.00% | 0.00% | 0.22% | 0.00% | 0.19% | 21.86% | C16:1 content in ONC-T18, change versus control (in words) (antagonist added to medium): increase the content of C16:1; myristoleic acid, lipid as percentage of total fatty acid: 0.28%; nervonic acid, lipid as percentage of total fatty acid: 0.00%; oleic acid, lipid as percentage of total fatty acid: 0.00%; palmitic acid, lipid as percentage of total fatty acid: 24.19%; palmitoleic acid, lipid as percentage of total fatty acid: 17.98%; pentadecanoic acid, lipid as percentage of total fatty acid: 0.91%; pentadecenoic acid, lipid as percentage of total fatty acid: 0.23%; stearic acid, lipid as percentage of total fatty acid: 1.60%; vaccenic acid, lipid as percentage of total fatty acid: 6.67%
C/C=C/C/C=C/CCC(=O)[C@H]1O[C@H]1C(N)=O [cerulenin] | increases | 0.00% | 0.41% | 0.30% | 0.11% | 0.14% | 19.97% | 0.23% | 5.83% | 0.17% | 1.17% | 0.36% | 0.00% | 0.19% | 1.24% | 0.23% | 0.20% | 0.00% | 0.74% | 11.03% | DHA accumulated in ONC-T18, change versus control (in words) (antagonist added to medium): increases; also recorded: increase in the content and proportion of DHA; myristoleic acid, lipid as percentage of total fatty acid: 0.00%; nervonic acid, lipid as percentage of total fatty acid: 0.00%; oleic acid, lipid as percentage of total fatty acid: 0.29%; palmitic acid, lipid as percentage of total fatty acid: 48.98%; palmitoleic acid, lipid as percentage of total fatty acid: 2.22%; pentadecanoic acid, lipid as percentage of total fatty acid: 3.23%; pentadecenoic acid, lipid as percentage of total fatty acid: 0.10%; stearic acid, lipid as percentage of total fatty acid: 1.86%; vaccenic acid, lipid as percentage of total fatty acid: 1.24%
